Data as given in patent publication US20240010726A1, “LFA-1 SIGNALLING MEDIATOR FOR USE IN CANCER THERAPY” (Universität Basel, priority 2020, published 2024).

What was measured:
[1] = tested on: murine WT and LFA-1^−/− CTLs; test: Glycolytic switch of murine WT and LFA-1−/− CTLs; assay type: cell-based; conditions: anti-CD3/28 Ab; 0 mM vs 1.2 mM Mg^2+
Experimental: FIG. 3: Magnesium regulates LFA-1 mediated T cell activation and cytotoxicity as well BiTE- and CAR T-cell functionality. (a) Glycolytic switch of murine WT and LFA-1^-/- CTLs upon injection of anti-CD3/28 Ab in medium containing 1.2 mM Mg^2+ and 0 mM Mg^2+, presented as quantification of summarized data with n=4 mice. (b) Calcium flux in WT and LFA-1^-/- Jurkat T cells stimulated with anti-CD3 Ab in 1.2 mM and 0 mM Mg^2+ medium, respectively. Cells were loaded with Fluo4, and signal intensity as recorded by plate reader, was normalized to unstimulated baseline values. […] Quantified results of n=3 mice with 3 technical replicates each. […] The effector to target cell ratio was 3:1. Results are quantified of n=3 mice with 3 technical replicates each. (e) Representative CD11a (LFA-1) surface expression on human naïve and EM CD8 T cells, PHA T cell blasts and REP T cells, assessed by flow cytometry. […] The effector to target cell ratio was 1:1. Data is presented as quantified results of n=5 healthy donors (f, g, h), n=3 healthy donors with 2 technical replicates each or n=1 healthy donor with 4 technical replicates (j). […] Data is presented as quantified results of n=1 healthy donor with 4 technical replicates. […] (p) Abundance of IFNγ in cell culture supernatants corresponding to the conditions depicted in (o) at 24 hours was determined by ELISA (n=8, 3 independent experiments). […]

PHA T cell blasts = test: CD69 expression of PHA T cell blasts at increasing plate-bound anti-CD3 mAb; assay type: cell-based, human; conditions: augmenting concentrations of plate-bound anti-CD3 mAb; ±Mg^2+
Experimental: FIG. 4: Magnesium regulates LFA-1 mediated T cell activation and cytotoxicity within physiologic range • (a) Metabolic flux analysis of human EM CD8 T cells upon supra-physiologic activation with anti-CD3 and anti-CD28 Ab, and additional injection of secondary, cross-linking anti-CD3/28 Ab, in medium containing 1.2 mM Mg^2+, 0 mM Mg^2+, or medium which was reconstituted to 1.2 mM Mg^2+ immediately prior to activation (0→1.2 mM Mg^2+). Pooled results from n=6 healthy donors from 3 independent experiments. (b) CD69 expression of PHA T cell blasts upon activation with indicated concentrations of plate-bound anti-CD3 mAb in ±Mg^2+ containing medium. (c) Caspase-3 activity in EL4 target cells after co-culture for 4 hours with murine WT and LFA-1^−/− CTLs in medium containing 1.2 mM Mg^2+ or 0 mM Mg^2+, in presence of PHA at the indicated concentrations. The effector to target cell ratio was 3:1. Pooled results, n=3-4, from 2 independent experiments. (d) Cytotoxicity assay using WT and LFA-1^−/− OT1 CTLs, co-cultured for 4 hours in medium containing 1.2 mM Mg^2+ or 0 mM Mg^2+ with luciferase-expressing EL4 target cells (pulsed with altered OVA peptides at 10^−6 M). Cytotoxicity was quantified after adding luciferin to medium and measuring luminescent signal intensity. […] Cytotoxicity was quantified after adding luciferin to medium and measuring luminescent signal intensity. […]

For [Mg+2] [Mg^2+, Magnesium], the “Glycolytic switch of LFA-1^−/− CTLs” value [1] was “independent from extracellular Mg^2+ concentrations”, the “Glycolytic switch of WT CTLs” value [1] was “reduced glycolytic switching” and the “CD69 expression of PHA T cell blasts” value (PHA T cell blasts) was “less pronounced dependence”.
